≈ marks a conversion by molar mass, not a printed value. Calls of active or inactive are those of the source. The rule behind the calls is not given here.

Data set [1] has as its system Leishmania donovani. Description: Antileishmanial activity against Leishmania donovani promastigotes after 72 hrs by alamar blue assay. The data set is classed as functional, organism-based. In general terms: The colour change of resazurin is a common sign of viable cells or microbes.
Data set [2] has as its system Plasmodium falciparum. Description: microbe, parasite or virus in culture. It is filed as functional, organism-based, W2, Vero.
Description: Antimalarial activity against chloroquine-resistant Plasmodium falciparum W2 infected in African green monkey (Cercopithecus aethiops) Vero cells assessed as parasite LDH activity after 72 hrs by Malstat reagent method
Another data set concerns Vero. Description: Cytotoxicity against african green monkey Vero cells after 1 to 2 days by neutral red assay. It is filed as ADME, cell-based, Chlorocebus sabaeus.
Data set [3] in a line: Selectivity index, ratio of IC50 for african green monkey (Cercopithecus aethiops) Vero cells to IC50 for chloroquine-sensitive Plasmodium falciparum D6.
Data set [4] is described as follows: Selectivity index, ratio of IC50 for african green monkey (Cercopithecus aethiops) Vero cells to IC50 for chloroquine-resistant Plasmodium falciparum W2.
In data set [5] the test system is Plasmodium falciparum. Description: Ratio of suberoylanilide hydroxamic acid IC50 to compound IC50 for chloroquine-sensitive Plasmodium falciparum D6 infected in […]. The data set is classed as functional.
The test system of data set [6] is Plasmodium falciparum. Briefly: Ratio of suberoylanilide hydroxamic acid IC50 to compound IC50 for chloroquine-resistant Plasmodium falciparum W2 infected in […]. It is filed as functional.
Data set [7] concerns Plasmodium falciparum. Description: microbe, parasite or virus in culture. The note with it: D6, Vero, 72 h.
Description: (§1) Antimalarial activity against chloroquine-sensitive Plasmodium falciparum D6 infected in African green monkey (Cercopithecus aethiops) Vero cells assessed as parasite LDH activity after 72 hrs by Malstat reagent method
Data set [8] deals with Leishmania donovani. Briefly: Ratio of suberoylanilide hydroxamic acid IC50 to compound IC50 for Leishmania donovani promastigotes. It is filed as functional.
In data set [9] the test system is Leishmania donovani. Description: Ratio of suberoylanilide hydroxamic acid IC50 to compound IC50 for Leishmania donovani promastigotes.
The target of the next data set is Histone deacetylase. Description: Inhibition of HDAC in human HeLa cell nuclear extracts after 15 mins by fluorescence assay. It is filed as cell-based.
The test system of data set [10] is Leishmania donovani.
For data set [11], the system named is Plasmodium falciparum. To be noted: vero.
Description: as §1
Setting [12] is: Leishmania donovani, 72 h, read-out: IC50.
[13] abbreviates: Plasmodium falciparum, W2, Vero, 72 h, read-out: IC50.
Where [14] appears, read: Chlorocebus sabaeus, Vero, read-out: IC50.

The IC90 is the concentration at which the effect reaches the 90% level. One may read the IC50 as the midpoint of a concentration-inhibition curve. Consider `COc1ccc2cc(-c3cn(CCCCCCC(=O)NO)nn3)ccc2c1`, for which, in the data set on Leishmania donovani [1] (Leishmania donovani, 72 h), the IC90 is above 40 µg/mL. Further, the IC50 with Leishmania donovani [1] (setting [12]) was 18.5 µg/mL (≈ 50.2 µM); with Plasmodium falciparum [2] (setting [13]), 0.053 µg/mL (≈ 0.144 µM); in the data set with Vero (setting [14]), 2.65 µg/mL (≈ 7.19 µM); in the data set with Plasmodium falciparum [7] it was 0.0475 µg/mL (≈ 0.129 µM). In addition, the selectivity ratio in data set [3] is 55.8; in data set [4], 50. Besides, the “Ratio IC50” value in the data set on Plasmodium falciparum [5] and in the data set on Plasmodium falciparum [6] was 5 each time.
The molecule `O=C(CCCCCn1cc(-c2cccs2)nn1)NO` came in with an IC90 with Leishmania donovani [1] (Leishmania donovani, 72 h) above 40 µg/mL. The IC50 in the data set on Leishmania donovani [1] (setting [12]) is 11.5 µg/mL (≈ 41 µM); in the data set on Plasmodium falciparum [2] (setting [13]) it was 0.0365 µg/mL (≈ 0.13 µM); with Vero (vero) it was “Non-toxic”; in the data set on Plasmodium falciparum [7] it was 0.046 µg/mL (≈ 0.164 µM). Moreover, the results for the selectivity ratio in [3] and in data set [4] were above 103 and above 130, respectively. The Ratio in the data set with Leishmania donovani [8] amounted to 2. Also, in the data set on Leishmania donovani [9], the IC50 ratio is on record as 2.
Take `COc1ccc2cc(-c3cn(CCCCCC(=O)NO)nn3)ccc2c1`: the IC90 with Leishmania donovani [1] (Leishmania donovani, 72 h) is above 40 µg/mL. In addition, the IC50 in the data set on Leishmania donovani [1] (setting [12]) was determined as 18 µg/mL (≈ 50.8 µM); with Plasmodium falciparum [2] (setting [13]), 0.031 µg/mL (≈ 0.0875 µM); in the data set with Vero (setting [14]), 2.85 µg/mL (≈ 8.04 µM); with Plasmodium falciparum [7] it was 0.035 µg/mL (≈ 0.0988 µM). The selectivity ratio in [3] is above 81.4; in data set [4], above 91.9. Further, the “Ratio IC50” value in the data set with Plasmodium falciparum [5] and with Plasmodium falciparum [6] was 5 each time.
On to `O=C(CCCCCCCn1cc(-c2ccc(-c3ccncc3)cc2)nn1)NO`, for which the IC50 was 212.9 nM against Histone deacetylase; “Not Active” with Leishmania donovani [1]; 0.128 µg/mL (≈ 0.336 µM) with Plasmodium falciparum [2] (setting [13]); 3.85 µg/mL (≈ 10.1 µM) in the data set with Vero (setting [14]); 0.0885 µg/mL (≈ 0.233 µM) in the data set on Plasmodium falciparum [7]. The results for the selectivity ratio in [3] and in data set [4] were 43.5 and 30.2, respectively. For the same molecule, the IC90 entry in the data set on Leishmania donovani [10] is “inactive”.
`CN(C)c1ccc(-c2cn(CCCCCCC(=O)NO)nn2)cc1` returned an IC90 in the data set on Leishmania donovani [1] (Leishmania donovani, 72 h) of 36 µg/mL (≈ 109 µM). Besides, the IC50 in the data set with Leishmania donovani [1] (setting [12]) was found to be 5.35 µg/mL (≈ 16.1 µM); in the data set on Plasmodium falciparum [2] (setting [13]), 0.032 µg/mL (≈ 0.0966 µM); in the data set with Vero (setting [14]), 0.765 µg/mL (≈ 2.31 µM); in the data set on Plasmodium falciparum [7], 0.0245 µg/mL (≈ 0.0739 µM). The selectivity ratio in data set [3] came to 31.2; in [4], 23.9. In addition, the Ratio with Leishmania donovani [8] was 2. Moreover, in the data set on Leishmania donovani [9], the IC50 ratio came to 2.
`O=C(CCCCCCn1cc(-c2ccccn2)nn1)NO`: the 90% effect level in the data set on Leishmania donovani [1] (Leishmania donovani, 72 h) (IC90) was put at 40 µg/mL (≈ 138 µM). Moreover, the IC50 with Leishmania donovani [1] (setting [12]) worked out at 5.75 µg/mL (≈ 19.9 µM); with Plasmodium falciparum [2] (setting [13]), 0.04 µg/mL (≈ 0.138 µM); with Vero (setting [14]), 0.95 µg/mL (≈ 3.28 µM); in the data set on Plasmodium falciparum [7], 0.069 µg/mL (≈ 0.238 µM). Moreover, the selectivity ratio came to 13.8 in [3] and 23.8 in data set [4]. For the same molecule, the Ratio with Leishmania donovani [8] came out at 2. Also, in the data set on Leishmania donovani [9], the IC50 ratio is given as 2.
Molecule `O=C(CCCCCn1cc(-c2cccc(-c3ccccc3)c2)nn1)NO` registered an IC90 in the data set on Leishmania donovani [1] (Leishmania donovani, 72 h) of 32.5 µg/mL (≈ 92.7 µM). For the same molecule, the IC50 in the data set with Leishmania donovani [1] (setting [12]) was 11.2 µg/mL (≈ 32.1 µM); with Plasmodium falciparum [2] (setting [13]), 0.026 µg/mL (≈ 0.0742 µM); in the data set on Vero (vero) it was “Non-toxic”; in the data set on Plasmodium falciparum [7], 0.0375 µg/mL (≈ 0.107 µM). Besides, the selectivity ratio in [3] is above 127; in [4], above 183. The Ratio in the data set on Leishmania donovani [8] came out at 2. The IC50 ratio in the data set with Leishmania donovani [9] worked out at 2.
As for `O=C(CCCCCn1cc(-c2ccc3cccnc3c2)nn1)NO`, the IC90 in the data set on Leishmania donovani [1] (Leishmania donovani, 72 h) was above 40 µg/mL. Besides, the IC50 in the data set on Leishmania donovani [1] (setting [12]) is 18.5 µg/mL (≈ 56.9 µM); in the data set on Plasmodium falciparum [2] (setting [13]) it was 0.033 µg/mL (≈ 0.101 µM); with Vero (vero) it was “Non-toxic”; in the data set on Plasmodium falciparum [7], 0.0525 µg/mL (≈ 0.161 µM). For the same molecule, the selectivity ratio was above 90.7 in data set [3] and above 144 in [4]. The “Ratio IC50” value in the data set with Plasmodium falciparum [5] and in the data set on Plasmodium falciparum [6] was 5 each time.
Regarding `O=C(CCCCn1cc(-c2ccccc2)nn1)NO`, the IC50 result with Leishmania donovani [1] is “Not Active”; in the data set with Plasmodium falciparum [2] (setting [13]), 0.12 µg/mL (≈ 0.461 µM); in the data set with Vero (vero), “Non-toxic”; with Plasmodium falciparum [7], 0.125 µg/mL (≈ 0.48 µM). Besides, the selectivity ratio in data set [3] was above 38.1; in data set [4], above 39.6. For the same molecule, the IC90 result in the data set with Leishmania donovani [10] is “inactive”.
`O=C(CCCCCn1cc(-c2ccc3ccccc3n2)nn1)NO` gave an IC90 in the data set on Leishmania donovani [1] (Leishmania donovani, 72 h) of 39 µg/mL (≈ 120 µM). Also, the IC50 in the data set with Leishmania donovani [1] (setting [12]) amounted to 9.5 µg/mL (≈ 29.2 µM); in the data set on Plasmodium falciparum [2] (setting [13]) it was 0.034 µg/mL (≈ 0.104 µM); with Vero (setting [14]), 2.4 µg/mL (≈ 7.38 µM); with Plasmodium falciparum [7], 0.033 µg/mL (≈ 0.101 µM). Further, the selectivity ratio in data set [3] was found to be 72.7; in data set [4], 70.6. For the same molecule, the “Ratio IC50” value with Plasmodium falciparum [5] and with Plasmodium falciparum [6] was 5 each time. Besides, the Ratio with Leishmania donovani [8] is listed as 2. For the same molecule, the IC50 ratio in the data set on Leishmania donovani [9] came to 2.
In the case of `O=C(CCCCCCn1cc(-c2ccc(-c3ccncc3)cc2)nn1)NO`, the IC50 entry was “Not Active” with Leishmania donovani [1], 1.25 µg/mL (≈ 3.42 µM) in the data set with Plasmodium falciparum [2] (setting [13]), “Non-toxic” with Vero (vero) and 1.15 µg/mL (≈ 3.15 µM) with Plasmodium falciparum [7]. The selectivity ratio in data set [3] is above 4.1; in [4], above 3.8. In addition, the IC90 result in the data set on Leishmania donovani [10] is “inactive”.
`O=C(CCCCCCn1cc(-c2ccccc2)nn1)NO`: the IC90 in the data set with Leishmania donovani [1] (Leishmania donovani, 72 h) was 40 µg/mL (≈ 139 µM). Besides, the IC50 with Leishmania donovani [1] (setting [12]) was 4.55 µg/mL (≈ 15.8 µM); in the data set with Plasmodium falciparum [2] (setting [13]), 0.0245 µg/mL (≈ 0.085 µM); in the data set on Vero (setting [14]), 0.43 µg/mL (≈ 1.49 µM); in the data set with Plasmodium falciparum [7] it was 0.038 µg/mL (≈ 0.132 µM). The selectivity ratio in [3] is 11.3; in data set [4] it was 17.6. Further, the Ratio with Leishmania donovani [8] is 2. Further, the IC50 ratio in the data set on Leishmania donovani [9] is 2.
Regarding `COc1ccc2cc(-c3cn(CCCCCCCC(=O)NO)nn3)ccc2c1`, the half-inhibitory concentration (IC50) was 226.1 nM against Histone deacetylase; “Not Active” in the data set on Leishmania donovani [1]; 0.165 µg/mL (≈ 0.431 µM) with Plasmodium falciparum [2] (setting [13]); 0.65 µg/mL (≈ 1.7 µM) in the data set on Vero (setting [14]); 0.112 µg/mL (≈ 0.293 µM) with Plasmodium falciparum [7]. Further, the selectivity ratio came out at 5.8 in [3] and 3.9 in data set [4]. Moreover, the IC90 result in the data set with Leishmania donovani [10] is “inactive”.
Consider `COc1cccc(-c2cn(CCCCCC(=O)NO)nn2)c1`, for which the 50% inhibitory concentration (IC50) result in the data set on Leishmania donovani [1] is given as “Not Active”; in the data set with Plasmodium falciparum [2] (vero) it was “Not Active”; in the data set on Vero (vero) it was “Non-toxic”; in the data set with Plasmodium falciparum [11] it was “Not Active”. In addition, in the data set with Leishmania donovani [10], the IC90 result is “inactive”.

The values are drawn from ChEMBL document CHEMBL1157662, “Antimalarial and antileishmanial activities of histone deacetylase inhibitors with triazole-linked cap group” (Bioorg Med Chem, 2010).
